Measurements: publication PMC5554220, “A Novel Aldosterone Antagonist Limits Renal Injury in 5/6 Nephrectomy” (Scientific Reports, 2017)

Experiments:
[1] = test system: rats with 5/6 renal ablation (Nx); experiment: Protocol 1 (early treatment), 5/6 renal ablation (Nx); type: in vivo, male Munich-Wistar rats
Text: One-hundred forty-five adult male Munich-Wistar rats, obtained from a local facility at the Faculty of Medicine, University of São Paulo, weighing between 220 and 250 g, were used in this study. All experimental procedures were approved by the local Research Ethics Committee (Comissão de Ética para Análise de Projetos de Pesquisa do Hospital das Clínicas da Faculdade de Medicina da Universidade de São Paulo, CAPPesq, process n° 0905/09), and carried out following strictly our institutional guidelines and current international standards for manipulation and care of laboratory animals. Body weights and general conditions were assessed daily. Five-sixths renal ablation (Nx) was performed as a single-step procedure under anesthesia with ketamine 50 mg/kg and xylazine 10 mg/kg im. After ventral laparotomy, the right kidney was excised and two or three branches of the left renal artery were ligated, so as to promote infarction of two-thirds of the left kidney. The operation was invariably well tolerated. Sham-operated rats underwent anesthesia and manipulation of the renal pedicles without removal of renal mass. After surgery, rats received enrofloxacin and, upon recovery, had free access to tap water and regular rodent chow containing 0.5 Na and 22% protein (Nuvital Labs, Curitiba, Brazil), and were kept at 23 ± 1 °C and 60 ± 5% relative air humidity, under an artificial 12–12 hour light/dark cycle. Rats were then treated following two different experimental protocols (described later).
In this first protocol, Nx rats were divided into groups: NX + V (N = 8), receiving vehicle; NX + Eple (N = 8), receiving oral (mixed with the chow) Eple, 150 mg/kg/day; and Nx + Ly (N = 8), receiving oral Ly, 20 mg/kg/day. A group of sham-operated rats (S, N = 7) was also studied. Treatments were started 24 h after surgery. Rats were followed during 60 days, with determination of TCP and UalbV on Days 30 and 60. TCP was assessed with an optoelectronic automated device (Visitech Systems, Apex, NC), after rats had been preconditioned so as to remain calm during the procedure. UalbV was measured with a conventional immunodiffusion technique. On Day 60, rats were anesthetized as described before, and blood was collected from the abdominal aorta for determination of serum creatinine, serum K^+, PRA and PAC. The remnant kidney was then perfusion-fixed with Duboscq-Brazil solution after a brief washout with saline to remove blood from renal vessels, and prepared for histomorphometric and immunohistochemical analyses using conventional sequential techniques.
Histomorphometric analysis was performed blindly by two independent observers. The extent of glomerular injury was estimated, in PAS-stained sections, by determining the percentage of glomeruli with sclerotic lesions. The fraction of the renal cortical area occupied by interstitial tissue (%INT) was estimated in 25 consecutive microscopic fields of Masson-stained sections by a point-counting technique, at a final magnification of 200X, under a 144-point grid.
PRA and PAC were determined using commercially available radioimmunoassay kits (Renin Active IRMA and Aldosterone Active RIA, Beckman Coulter, Carlsbad, CA).

Nx rats = experiment: Preliminary experiments to determine the doses of Eple and Ly; type: in vivo
Method: Preliminary experiments were performed to exclude the possibility that any differences between Eple and Ly, both in monotherapy and as add-ons to L, were simply due to the use of inadequately low doses of either compound. In the first set of experiments, Nx rats received Eple at the recommended dose of 85 mg/kg, and at 150 mg/kg, higher than in most studies reported so far. […] Other Nx rats received Ly at either 12 mg/kg (the recommended dose) or 20 mg/kg. […] Based on these preliminary results, we set the doses of Eple and Ly at 150 mg/kg and 20 mg/kg, respectively.

With `O=c1[nH]c2ccc(/C=C3\c4ccc(F)cc4COc4cc(F)ccc43)cc2[nH]1` [Ly] the “Albumin excretion rate (UalbV)” value ([1]; 60 days after ablation, Eple 150 mg/kg/day, Ly 20 mg/kg/day oral) was “significantly lower in Ly-treated than in untreated or Eple-treated rats”, the “Fractional cortical interstitial area” value ([1]; Day 60) was “significantly diminished” and the “Left kidney weight corrected for body weight (renal hypertrophy)” value ([1]; Day 60) was “renal hypertrophy was significantly attenuated”. For the same molecule, the “Plasma renin activity (PRA)” value ([1]; Day 60) was “markedly increased PRA”, the “PAC relative to sham (S)” value ([1]; Day 60, higher than in S) was “over 30 fold” and the “Plasma K+ levels” value ([1]; Day 60, versus Nx + V) was “not aggravated”. For the same molecule, the “Tail-cuff pressure (TCP)” value ([1]; Eple 150 mg/kg/day, Ly 20 mg/kg/day oral) was “More pronounced attenuation of hypertension”, the “Maximal nontoxic dose, defined by stunting of body growth” value (Nx rats) was 20 mg/kg and the “Dose-response effect on the parameters studied” value (Nx rats; Ly 12 mg/kg vs 20 mg/kg) was “A dose-response effect was observed for most parameters”. For the same molecule, the Body growth (Nx rats; Ly 30 mg/kg) was “severe growth stunting”.
